Values joined by “and” are separate entries in the source; they are usually repeats but may differ in a detail not shown here. Equal values may be shown once. “Also recorded” adds a separate entry of the source.
Legend:
[1] = test system: rabbit eyes (intraocular pressure); assay: Rabbit Eye Tests (In-Vivo IOP Determinations), Water Loading Model; parameters: species or system New Zealand albino rabbits; conditions: for drop in IOP (right eye) compared to no drug control: 6-ethoxy-N-methyl: at 90 and 120 minutes, 6-chloro: 15 through 90 minutes, ethoxzolamide: any time point
Method: New Zealand albino rabbits either sex and weighing 1.9-2.4kg were used. Control IOP measurements were made by applanation tonometry (Alcon Applanation Pneumatonograph®) prior to water loading and drug administration. The rabbits were first anesthelized and then water loaded using 100 ml/kg (sterile water for injection). The water dose was given intraperitoneally over 15-20 minutes Four test formulations were administered topically to the right eye of each rabbit immediately following water loading. The vehicle was administered to the left eye of each rabbit. The test formulations contained 1% suspensions of ethoxzolamide, and the other indicated compounds, and a vehicle (coded E). The vehicle contained a pH 7.2 phosphate buffer and 0.05% polysorbate 80 (Tween-80®). IOP measurement were made in right and left eyes at 15, 30, […], 60, 90, 120 and 180 minutes after topical administration.

[2] = test system: rabbit eyes (intraocular pressure); assay: Salted Rabbit Test (IOP in rabbits fed a sodium enriched diet); type: in vivo, adult white rabbits; conditions: for Lowering of IOP (in words): 6-chloro: 30, 60 and 120 minutes, ethoxzolamide: any time point after dosing; for Average IOP change: 1% w/v suspension topical; for Average difference in IOP between both eyes just prior to dosing: t = 0, pre-dose; for Statistical significance of IOP change: N.S. = non-significant
[3] = test system: rabbit eyes (intraocular pressure); assay: as above; type: in vivo, adult white rabbits; conditions: for IOP change, (IOPDET - IOPCET) - (IOPDEO - IOPCEO) / Difference in IOP between both eyes just prior to dosing (IOPDEO - IOPCEO): individual rabbit; for IOP change, (IOPDET - IOPCET) - (IOPDEO - IOPCEO): 1% w/v suspension topical; for Difference in IOP between both eyes just prior to dosing (IOPDEO - IOPCEO): t = 0, pre-dose; for Effectiveness in lowering IOP, comparison (in words): the two rabbit models of Examples 10 and 11
Method: The treated eye was selected randomly, whereas, the fellow eye received placebo; the observer was masked.
In particular, a 1% w/v suspension of 6-chloro-2-benzothiazolesulfonamide analog was prepared in a standard vehicle consisting of aqueous pH 7.8 phosphate buffer, 0.05% w/v tween 80, and sufficient NaC1 to make the preparation isotonic. One drop, followed by two drops each at one minute intervals, was applied to one eye of normal adult white rabbits. Fifteen rabbits were used in the experiment. The treated eye was selected randomly, whereas, the fellow eye received placebo. The observer was masked. The intraocular pressure (IOP) was measured with an Alcon […] pneumotonometer. A drop of local anesthetic was applied just prior to making the measurement. The IOP was measured in both rabbit eyes at 0, 30, 60, 90 and 120 minutes following instillation of the new antiglaucoma agent.

[4] = 15 min after topical administration, 1% suspension, 50 ul q 2 min × 6, right eye
[5] = 30 min after topical administration, 1% suspension, 50 ul q 2 min × 6, right eye
[6] = 60 min after topical administration, 1% suspension, 50 ul q 2 min × 6, right eye
[7] = 90 min after topical administration, 1% suspension, 50 ul q 2 min × 6, right eye
[8] = 120 min after topical administration, 1% suspension, 50 ul q 2 min × 6, right eye
[9] = 180 min after topical administration, 1% suspension, 50 ul q 2 min × 6, right eye
[10] = time 0 min, baseline, 1% suspension topical to right eye

Row | Compound | drop in IOP (right eye) compared to no drug control [1] | IOP, right eye (R) [1, 4] [mmHg] | IOP, right eye (R) [1, 5] [mmHg] | IOP, right eye (R) [1, 6] [mmHg] | IOP, right eye (R) [1, 7] [mmHg] | IOP, right eye (R) [1, 8] [mmHg] | IOP, right eye (R) [1, 9] [mmHg] | IOP, right eye (R) [1, 10] [mmHg] | Lowering of IOP (in words) [2] | Paired t value of IOP change ([2]; 30 min) | Paired t value of IOP change ([2]; 90 min) | Average IOP change ([2]; 30 min) | Average IOP change ([2]; 60 min) | Average IOP change ([2]; 90 min) [mm Hg] | Average IOP change ([2]; 120 min) | Average difference in IOP between both eyes just prior to dosing [2] | Paired t value of IOP change ([3]; 60 min) | Paired t value of IOP change ([3]; 120 min) | IOP change, (IOPDET - IOPCET) - (IOPDEO - IOPCEO) ([3]; 30 min) | IOP change, (IOPDET - IOPCET) - (IOPDEO - IOPCEO) ([3]; 60 min) | further results
1 | NS(=O)(=O)c1nc2ccc(Cl)cc2s1 [6-Chloro benzothiazole-2-sulfonamide, 6-Chloro-2-benzothiazolesulfonamide] | significant drop | 19.72 | 20.00 | 21.39 | 19.11 | 18.78 | 17.8 | 14.33 | small but significant reduction of intraocular pressure; also recorded: statistically significant | -1.834 | -1.63 | -0.93 mm Hg | -1.27 mm Hg | -0.87 | -1.47 mm Hg | +0.27 mm Hg | -2.106 | -2.11 | -3 mm Hg and -5 mm Hg and +1 mm Hg and 0 mm Hg and -4 mm Hg and -1 mm Hg and -2 mm Hg and +2 mm Hg | -2 mm Hg and -4 mm Hg and +1 mm Hg and -3 mm Hg and +2 mm Hg and -1 mm Hg and +3 mm Hg | Effectiveness (in words) ([1]; water loading model, topical): proved effective; Probability (1.t.) of IOP change ([2]; 30 min): 0.05; Probability (1.t.) of IOP change ([2]; 60 min): 0.025; Probability (1.t.) of IOP change ([2]; 90 min): 0.1; Probability (1.t.) of IOP change ([2]; 120 min): 0.025; IOP change, (IOPDET - IOPCET) - (IOPDEO - IOPCEO) ([3]; 90 min): -1 mm Hg and -2 mm Hg and +1 mm Hg and -3 mm Hg and +2 mm Hg and 0 mm Hg and +3 mm Hg; IOP change, (IOPDET - IOPCET) - (IOPDEO - IOPCEO) ([3]; 120 min): -2 mm Hg and -4 mm Hg and +3 mm Hg and -1 mm Hg and -5 mm Hg and 0 mm Hg and -6 mm Hg and +1 mm Hg; Difference in IOP between both eyes just prior to dosing (IOPDEO - IOPCEO) [3]: +1 mm Hg and +2 mm Hg and 0 mm Hg and +3 mm Hg and -2 mm Hg and -1 mm Hg and -3 mm Hg; Effectiveness in lowering IOP, comparison (in words) [3]: pharmacologically active (lowered IOP)
2 | CCOc1ccc2nc(S(=O)(=O)NC)sc2c1 [6-Ethoxy-N-methyl-2-benzothiazolesulfonamide] | significant drop | 19.10 | 19.90 | 20.33 | 18.57 | 17.24 | 17.00 | 14.10 |  |  |  |  |  |  |  |  |  |  |  |  | 
3 | CCOc1ccc2nc(S(N)(=O)=O)sc2c1 [Ethoxzolamide, reference compound] | no effect | 21.07 | 21.60 | 21.33 | 20.33 | 18.80 | 16.4 | 14.94 | No lowering of IOP could be detected | 1.27 | 0.73 | -.17 mm Hg | +.33 mm Hg | -0 | +.17 mm Hg | +.67 mm Hg | 0.40 | 0.50 | +1 mm Hg and +2 mm Hg and -2 mm Hg and -3 mm Hg and 0 mm Hg | +3 mm Hg and -2 mm Hg and +2 mm Hg and +1 mm Hg and 0 mm Hg | Statistical significance of IOP change ([2]; 30 min): N.S.; Statistical significance of IOP change ([2]; 60 min): N.S.; Statistical significance of IOP change ([2]; 90 min): N.S.; Statistical significance of IOP change ([2]; 120 min): N.S.; IOP change, (IOPDET - IOPCET) - (IOPDEO - IOPCEO) ([3]; 90 min): +1 mm Hg and 0 mm Hg and +2 mm Hg and -2 mm Hg and -3 mm Hg; IOP change, (IOPDET - IOPCET) - (IOPDEO - IOPCEO) ([3]; 120 min): 0 mm Hg and -1 mm Hg and +2 mm Hg; Difference in IOP between both eyes just prior to dosing (IOPDEO - IOPCEO) [3]: +4 mm Hg and +1 mm Hg and -1 mm Hg and 0 mm Hg; Effectiveness in lowering IOP, comparison (in words) [3]: no effectiveness

From US4975449A, “Topical treatment of glaucoma with 2-benzothiazolesulfonamide derivative” (University of Iowa Research Foundation, priority 1983, dated 1990)
